Measured values published in ChEMBL document CHEMBL1127247, “Isoarecolones and arecolones: selective central nicotinic agonists that cross the blood-brain barrier” (Bioorg Med Chem Lett, 1994).

Experiments:
[1] = Selectivity for nicotinic agonist activity was determined between Ki for [3H]-OXO-M and to that for [3H]MCC; format: functional
[2] = biological target: Muscarinic acetylcholine receptor; assay: Binding affinity for muscarinic receptor site in rat hippocampus was determined using competitive radioligand binding assays employing [3H]OXO-M; format: tissue-based
[3] = biological target: Neuronal acetylcholine receptor; assay: Binding affinity for Nicotinic acetylcholine receptor site in rat cortex was determined using [3H]MCC as radioligand
[4] = species on record: Rattus norvegicus; assay: (§1) Effect of compound on accumulation of dopamine metabolite dihydroxyphenyl acetic acid (DOPAC) in nucleus accumbens; format: functional
[5] = species on record: Rattus norvegicus; assay: (§2) Effect of compound on accumulation of homovanillic acid (HVA) in nucleus accumbens; format: functional, organism-based
[6] = species on record: Rattus norvegicus; assay: as §1; format: functional, organism-based
[7] = species on record: Rattus norvegicus; assay: as §2; format: functional
[8] = species on record: Rattus norvegicus; assay: (§3) Effect of compound on accumulation of dopamine metabolite dihydroxyphenyl acetic acid (DOPAC) in rat striatum; format: functional, organism-based
[9] = species on record: Rattus norvegicus; assay: as §3; format: functional
[10] = species on record: Rattus norvegicus; assay: (§4) Effect of compound on accumulation of homovanillic acid (HVA) in rat striatum; format: functional, organism-based
[11] = species on record: Rattus norvegicus; assay: as §4; format: functional

| Compound | Selectivity [1] | Ki [2] [nM] | Ki [3] [nM] | Control [4] [%] | Concentration [5] [nM/g] | Concentration [6] [nM/g] | Control [7] [%] | Concentration [8] [nM/g] | Control [9] [%] | Concentration [10] [nM/g] | Control [11] [%] |
| --- | --- | --- | --- | --- | --- | --- | --- | --- | --- | --- | --- |
| CCCC(=O)C1=CCCN(C)C1 | 208 | 2730 | 13.1 | – | – | – | – | – | – | – | – |
| CN1CC=C(C(=O)Cc2ccccc2)CC1 | 4 | 3500 | 946 | – | – | – | – | – | – | – | – |
| CC(=O)C1=CCN(C)CC1 | 112 | 5425 | 48.4 | – | – | – | – | – | – | – | – |
| CC(=O)C1=CCCN(C)C1 | 134 | 4380 | 32.7 | – | – | – | – | – | – | – | – |
| CC#CC(=O)C1=CCN(C)CC1 | 122 | 2690 | 22 | 120 | 0.73 | 1.66 | 132 | 1.91 | 123 | 1.25 | 140 |
| CN1CCC=C(C(=O)c2ccccc2)C1 | 14 | 2450 | 178 | – | – | – | – | – | – | – | – |
| COC(=O)C1=CCCN(C)C1 [ARECOLINE] | – | – | 224 | – | – | – | – | – | – | – | – |
| CCC(=O)C1=CCN(C)CC1 | > 195 | > 5000 | 25.7 | – | – | – | – | – | – | – | – |
| CCCCC(=O)C1=CCCN(C)C1 | 23 | 1385 | 61.3 | – | – | – | – | – | – | – | – |
| CC#CC(=O)C1=CCCN(C)C1 | 284 | 1650 | 5.8 | 129 | 0.88 | 1.79 | 159 | 1.8 | 115 | 1.21 | 135 |
| CN1CCC[C@H]1c1cccnc1 [NICOTINE] | – | – | – | 144 | 0.86 | 2 | 157 | 2.18 | 140 | 134 | 151 |
| CN1CC=C(C(=O)C(C)(C)C)CC1 | 110 | 6250 | 56.7 | – | – | – | – | – | – | – | – |
| CN1CCC=C(C(=O)Cc2ccccc2)C1 | 15 | 1885 | 123 | – | – | – | – | – | – | – | – |
| CCCCC(=O)C1=CCN(C)CC1 | 29 | 4345 | 149 | – | – | – | – | – | – | – | – |
| CN1CC=C(C(=O)c2ccccc2)CC1 | 5 | 3750 | 766 | – | – | – | – | – | – | – | – |
| CCCC(=O)C1=CCN(C)CC1 | > 74 | > 5000 | 67.3 | – | – | – | – | – | – | – | – |
| CCC(=O)C1=CCCN(C)C1 [ARECOLON] | 336 | 1950 | 5.8 | – | – | – | – | – | – | – | – |
